Consider 20 compounds from BindingDB's records for doi:10.1021/acs.jmedchem.6b00541 (Vertex Pharmaceuticals, 2016).

pEC50: −log10 of the molar value.

The target of one test is T1, Nonstructural protein 5A (UniProt Q5L478).
T1 sequence (Q5L478 whole entry): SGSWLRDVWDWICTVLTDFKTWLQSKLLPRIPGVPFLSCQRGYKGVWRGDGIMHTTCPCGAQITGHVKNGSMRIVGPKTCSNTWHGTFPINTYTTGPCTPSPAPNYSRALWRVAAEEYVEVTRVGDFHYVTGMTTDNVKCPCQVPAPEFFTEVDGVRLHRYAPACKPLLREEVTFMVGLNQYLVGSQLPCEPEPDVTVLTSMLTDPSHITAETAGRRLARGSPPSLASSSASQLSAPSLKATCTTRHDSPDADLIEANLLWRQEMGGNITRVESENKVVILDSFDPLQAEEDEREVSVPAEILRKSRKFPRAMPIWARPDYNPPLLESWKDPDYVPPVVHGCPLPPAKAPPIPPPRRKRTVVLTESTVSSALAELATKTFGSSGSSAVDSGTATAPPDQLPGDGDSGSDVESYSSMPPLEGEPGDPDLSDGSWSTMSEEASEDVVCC
Nature of the test: Allosteric inhibition of HCV genotype 1b NS5A infected in human l389lucubi- neo/NS3-375.1-containing Huh7ET cells assessed as RNA replication/translation after 4 days by luciferase reporter gene assay.

Test [1] in a line: Allosteric inhibition of HCV genotype 1a NS5A infected in human W11.8 cells assessed as reduction in viral RNA replication after 4 days by ELISA. A general note: ELISA stands for enzyme-linked immunosorbent assay.
Test [2] in a line: Allosteric inhibition of HCV genotype 1b NS5A infected in human l389lucubi- neo/NS3-375.1-containing Huh7ET cells assessed as RNA replication/translation after 4 days in presence of 40% human serum by luciferase reporter gene assay. On the technique in general: Reporter assays use an easily measured gene product as a stand-in for the process of interest.
Test [3] in a line: Allosteric inhibition of HCV genotype 1b NS5A infected in human l389lucubi- neo/NS3-375.1-containing Huh7ET cells assessed as RNA replication/translation after 4 days by luciferase reporter gene assay.

`CC(C)(C)C#Cc1cc(N(CC(=O)N2CCOCC2)C(=O)[C@H]2CC[C@H](C)CC2)c(C(=O)O)s1`: the pEC50 (in general, the EC50 on a negative log10 scale, so that one unit is a factor of ten) on Nonstructural protein 5A was 7.64; in test [1], 7.43; in test [2], 6.47.
Consider `CC(C)(C)C#Cc1cc(N(CC(=O)N2CCCC2)C(=O)[C@H]2CC[C@H](C)CC2)c(C(=O)O)s1`, for which the figures for the pEC50 in test [1] and in test [3] were 7.49 and 7.68, respectively.
For the compound `C[C@@H](C(=O)N(C)C)N(c1cc(C#CC(C)(C)C)sc1C(=O)O)C(=O)[C@H]1CC[C@H](C)CC1`, the figures for the pEC50 in test [1] and in test [3] were 8.15 and 8.30, respectively.
On the same counts, the results for `CC[C@@H](C(=O)N(C)C)N(c1cc(C#CC(C)(C)C)sc1C(=O)O)C(=O)[C@H]1CC[C@H](C)CC1` are 7.62 and 7.80.
On to `COC1CCN(C(=O)CN(c2cc(C#CC(C)(C)C)sc2C(=O)O)C(=O)[C@H]2CC[C@H](C)CC2)CC1`, for which the pEC50 in test [3] was 7.77.
The same measure, in the same setting: in the case of `CC(C)(C)C#Cc1cc(N(CC(=O)N2CCC(O)CC2)C(=O)[C@H]2CC[C@H](C)CC2)c(C(=O)O)s1` it was 7.19.
With `CCN(CC)C(=O)CN(c1cc(C#CC(C)(C)C)sc1C(=O)O)C(=O)[C@H]1CC[C@H](C)CC1`, the pEC50 in test [1] is 7.29; in test [3], 7.64.
Take `CN(C)C(=O)CN(c1cc(C#CC(C)(C)C)sc1C(=O)O)C(=O)[C@H]1CC[C@H](C)CC1`: the negative-log EC50 (pEC50) was 7.46 in test [1] and 7.92 in test [3].
On the same counts, the results for `COC[C@@H](C(=O)N(C)C)N(c1cc(C#CC(C)(C)C)sc1C(=O)O)C(=O)[C@H]1CC[C@H](C)CC1` are 7.96 and 8.15.
As to `CCC[C@@H](C(=O)N(C)C)N(c1cc(C#CC(C)(C)C)sc1C(=O)O)C(=O)[C@H]1CC[C@H](C)CC1`, in test [3], the pEC50 is 7.85.
On the same count and under the same terms, with `C[C@H](C(=O)N(C)C)N(c1cc(C#CC(C)(C)C)sc1C(=O)O)C(=O)[C@H]1CC[C@H](C)CC1` the figure was 6.96; with `CC(C)(C)C#Cc1cc(N(CC(=O)N2CCCCC2)C(=O)[C@H]2CC[C@H](C)CC2)c(C(=O)O)s1`, 7.17; with `CN(C)C(=O)[C@H](CO)N(c1cc(C#CC(C)(C)C)sc1C(=O)O)C(=O)[C@H]1CC[C@H](C)CC1`, 7.22.
Take `CNC(=O)CN(c1cc(C#CC(C)(C)C)sc1C(=O)O)C(=O)[C@H]1CC[C@H](C)CC1`: in test [3], the pEC50 is 6.72.
Turning to `CN1CCN(C(=O)CN(c2cc(C#CC(C)(C)C)sc2C(=O)O)C(=O)[C@H]2CC[C@H](C)CC2)CC1`, the pEC50 in test [3] is 8.22.
The same measure, in the same setting: in the case of `CC(C)(C)C#Cc1cc(N(CC(=O)N2CC(O)C2)C(=O)[C@H]2CC[C@H](C)CC2)c(C(=O)O)s1` it was 7.18; in that of `CC(C)NC(=O)CN(c1cc(C#CC(C)(C)C)sc1C(=O)O)C(=O)[C@H]1CC[C@H](C)CC1`, 6.80.
Take `CC(C)[C@@H](C(=O)N(C)C)N(c1cc(C#CC(C)(C)C)sc1C(=O)O)C(=O)[C@H]1CC[C@H](C)CC1`: the pEC50 in test [3] is 7.29.
Same read-out and setting: with `CN(C)CCN(C)C(=O)CN(c1cc(C#CC(C)(C)C)sc1C(=O)O)C(=O)[C@H]1CC[C@H](C)CC1` the figure was 8.05.
Consider `CC(C)(C)C#Cc1cc(N(C(=O)[C@H]2CC[C@H](C)CC2)[C@H]2CC[C@H](O)CC2)c(C(=O)O)s1` [Lomibuvir], for which the pEC50 in test [1] is 7.28; in test [3], 8.15.
